The assay has as its system CIA arthritis mice. Put plainly: Arthritis index of CIA arthritis mice. Conditions: for arthritis index: MEAN ± SEM. In kind it is in vivo, C57BL/6 mice. An excerpt: Test materials: bovine type II collagen acetic acid solution and complete Freund's adjuvant were purchased from Chondrex company; isoferulic acid was purchased from Tianjin Yifang Technology Co., Ltd.
Animals: C57BL/6 mice, purchased from Beijing Huafukang Biotechnology Co., Ltd.
Grouping: 24 C57BL/6 mice, male, 18-20 g, after 1 day of adaptive breeding, the mice were randomly divided into 4 groups: normal control group and CIA model group, 5 mice in each group; Cimicifugae rhizoma group and isoferulic acid group, 7 mice in each group.
Model preparation and drug administration: Prepared a 2 mg/ml bovine type II collagen acetic acid solution, took 2 ml of the overnighted bovine type II collagen acetic acid solution, mixed thoroughly with 2 ml of complete Freund's adjuvant and emulsified (operation on ice), and prepared the bovine type II collagen emulsion having a final concentration of 1 mg/ml. Each mouse was injected intradermally with 0.1 ml of the emulsion. 21 days after the first immunization, mice were given a second immunization for 21 days, starting from day 0 of the second immunization, the CIA model group was given 250 μL of distilled water by gavage and the Cimicifugae rhizoma group was given 250 μL of the Cimicifugae rhizoma decoction obtained in Preparation Example 1. The crude drug dose was 2 g/kg; 250 μL of an aqueous solution of isoferulic acid was administered by gavage in the isoferulic acid group at a dose of 5 mg/kg, administered once every 3 days, and bred continuously for 21 days.
Animals were scored using the joint scoring method (grades 0-4), and the assessment was based on the degree of joint redness and swelling and joint swelling and deformation. 0 point: no redness and swelling; 1 point: redness but no swelling of the joint; 2 points: mild redness and swelling of the joint; 3 points: moderate redness and swelling of the joint; 4 points: severe redness and swelling of the joint accompanied by dysfunction of the joint. Each limb was scored separately, and the sum of the scores of each limb is the arthritis index of the mouse. The highest score is 16 points. The higher the score, the more severe the joint symptoms.

As to `COc1ccc(C=CC(=O)O)cc1O` [isoferulic acid, 3-hydroxy-4-methoxycinnamic acid], the arthritis index turned out to be 0 ± 0 (Day 0 after second immunization, gavage once every 3 days (Cimicifugae rhizoma 2 g/kg, isoferulic acid 5 mg/kg), max 16 points); 0.43 ± 0.28 (Day 3 after second immunization); 1.0 ± 0.61 (Day 6 after second immunization); 3.14 ± 0.77 (Day 9 after second immunization); 5.14 ± 0.98 (Day 12 after second immunization); 4.43 (Day 15 after second immunization, CIA group 8.43). For the same molecule, under “Day 15 after second immunization, CIA group 8.43, listed as Isoferulic acid”, the arthritis index is 5.71 ± 0.83. The “swelling of paw joints (FIG. 3)” value (pictures of front and hind paw joints, versus CIA arthritis mice) is reported as “significantly reduced”.

The values are drawn from US20200108032A1, “USE OF ISOFERULIC ACID, ISOFERULIC ACID-CONTAINING TRADITIONAL CHINESE MEDICINE EXTRACT AND CIMICIFUGAE RHIZOMA” (BEIJING DITAN HOSPITAL, CAPITAL MEDICAL UNIVERSITY, priority 2017, published 2020).
